Laboratory results: patent US8053424B2, “Composition and method of treating hearing loss” (The Regents of the University of Michigan, priority 2006, dated 2011)

Test system: guinea pigs
Assay: Threshold shift by auditory brainstem response (ABR) testing after 120 dB SPL octave band noise
Assay type: in vivo, guinea pigs (NIH outbred strain)
Details: FIG. 1-3 comparison between treatments
Procedure: In guinea pig studies, hearing loss and the efficacy of the composition of the subject invention for treating hearing loss is measured as an average difference in threshold shift from baseline threshold sensitivity at 4, 8, and 16 kHz, as compared to an untreated control, after exposure to 120 decibel SPL Octave Band Noise centered at 4 kHz for five hours.
To obtain those results, the composition is typically injected each day, twice a day, for three days prior to exposure to the noise and injected again each day for at least five days, typically up to ten days, subsequent to the exposure to the noise. The threshold shift is measured 10 days after exposure to the noise using auditory brainstem response (ABR) testing.
In order to determine efficacy of the composition of the present invention in treating hearing loss, baseline threshold sensitivity of the guinea pigs is measured binaurally using auditory brainstem response testing at 4, 8, and 16 kHz.
For Example 1, the guinea pigs are first treated each day, twice a day, for three days prior to exposure to 120-dB SPL Octave Band Noise centered at 4 kHz for 5 hours. The noise causes trauma to middle or inner ears of the guinea pigs and is sufficient to cause permanent threshold shift, i.e., permanent hearing loss. […] Ten days after the noise exposure, auditory sensitivity is measured using ABR. […]

SMILES | effect in minimizing threshold shift (additive effect), in words
Cc1c(C)c2c(c(C)c1O)CCC(C)(C(=O)O)O2 (centres unmarked) [Trolox®] | do not exhibit the same additive effect
O=C([O-])c1ccccc1O.[Na+] [salicylate, sodium salicylate] | do not exhibit the same additive effect
